Several values for one entry are separate records, joined by “and”; a condition that tells them apart may be missing. Equal values may be shown once.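 Method: 48-hour compound exposure of cells in 96-well plates, five concentrations, linear interpolation of endpoints. Abbreviation: GI50, concentration required for 50% inhibition of growth. TGI is the concentration that stops growth completely.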
Columns and labels:
Experiment in all cases: NCI tumour cell line growth inhibition, 48 h
DLD-1 colon = system: DLD-1 colon
HCC-2998 colon = system: HCC-2998 colon
HS 578T breast = system: HS 578T breast
M14 melanoma = system: M14 melanoma
M19-MEL melanoma = system: M19-MEL melanoma
OVCAR-3 ovarian = system: OVCAR-3 ovarian
SK-OV-3 ovarian = system: SK-OV-3 ovarian
TK-10 renal = system: TK-10 renal
UACC-62 melanoma = system: UACC-62 melanoma
UO-31 renal = system: UO-31 renal

Row | SMILES | TGI (DLD-1 colon) | TGI (HCC-2998 colon) | TGI (HS 578T breast) [µM] | TGI (M14 melanoma) | TGI (M19-MEL melanoma) | TGI (OVCAR-3 ovarian) | TGI (SK-OV-3 ovarian) [µM] | TGI (TK-10 renal) | TGI (UACC-62 melanoma) | TGI (UO-31 renal) | GI50 (DLD-1 colon) [µM] | GI50 (HCC-2998 colon) [µM] | GI50 (HS 578T breast) [µM] | GI50 (M14 melanoma) [µM] | GI50 (M19-MEL melanoma) [µM] | GI50 (OVCAR-3 ovarian) [µM] | GI50 (SK-OV-3 ovarian) [µM] | GI50 (TK-10 renal) [µM] | GI50 (UACC-62 melanoma) [µM] | GI50 (UO-31 renal) [µM]
1 | COc1ccc2[nH]c3c4c(ccc3c2c1)C(=O)C=CC4=O | 8.78 µM | 45.9 µM | 71.5 | 35.2 µM | 32.7 µM | 20.8 µM | > 100 | 28.1 µM | 36 µM | 28.2 µM |  |  |  |  |  |  |  |  |  | 
2 | Cc1ccc(C2(O)CC(c3ccc([N+](=O)[O-])o3)=NN2C(=O)COc2ccc(Cl)cc2)cc1 (configuration not stated) | > 100 µM | 16.8 µM |  | 17.1 µM | 19.7 µM | 51.7 µM | > 100 | 38.4 µM | 15.1 µM | 16.2 µM |  |  |  |  |  |  |  |  |  | 
3 | COC(=O)/C(C)=C/[N+](=O)[O-] | 4.16 µM | 32.1 µM |  | 29.2 µM | 32.6 µM | 29.6 µM | 33.4 | 31.1 µM | 32.8 µM | 33.3 µM |  |  |  |  |  |  |  |  |  | 
4 | COC(=O)/C(C=O)=C/Sc1ccccc1 | 66 µM | > 100 µM |  | 42.6 µM | 55.7 µM | 65.8 µM | 88.5 | > 100 µM | 77.8 µM | 30.7 µM |  |  |  |  |  |  |  |  |  | 
5 | [Au+].[Au+].[Au+].[c-]1nccn1Cc1ccccc1.[c-]1nccn1Cc1ccccc1.[c-]1nccn1Cc1ccccc1 | 3.7 µM | 37.9 µM | 64 | 6.68 µM | 3.96 µM | 5.27 µM | 36.8 | 29.6 µM | 21.4 µM | 28.4 µM | 1.96 | 14.4 | 19.8 | 2.75 | 2.01 | 2.33 | 19.4 | 11.1 | 5.23 | 15
6 | CC12CCCCC1(C)C2Sc1ccccc1 (configuration not stated) | > 100 µM | > 100 µM |  | > 100 µM | > 94.5 µM | > 100 µM | > 100 | > 100 µM | > 100 µM | > 100 µM |  |  |  |  |  |  |  |  |  | 
7 | C[C@@]12CCCc3coc(c31)C(=O)c1cc3c(cc12)C(=O)C=CC3=O | > 1 µM and 6.07 µM | > 1 µM and 69.7 µM |  | > 1 µM and 29.7 µM | > 1 µM and 28 µM | > 1 µM and 41.8 µM | > 100 | > 1 µM and 35.8 µM | > 1 µM and 32.1 µM | > 1 µM and 29.7 µM | > 1 | > 1 |  | > 1 | > 1 | > 1 | > 100 | > 1 | > 1 | > 1
8 | Nc1ccn(C2(CO)C=C(CO)C(O)C2O)c(=O)n1 (configuration not stated) | > 25.8 µM | > 25.8 µM |  | > 25.8 µM | > 25.8 µM | > 25.8 µM | > 25.8 | > 25.8 µM | > 25.8 µM | > 25.8 µM |  |  |  |  |  |  |  |  |  | 
9 | CCOC(=N)CC(=O)Nc1cccc(C)c1C | > 100 µM | > 100 µM |  | > 100 µM | > 100 µM | > 100 µM | > 100 | > 100 µM | > 100 µM | > 100 µM |  |  |  |  |  |  |  |  |  | 
